Experimental data reported in patent publication US9795650B2, “Romidepsin formulations and uses thereof” (Celgene Corporation, priority 2013, dated 2017).

Assay: Solubility of romidepsin in solvents
Type: physicochemical
Description: In one embodiment, the romidepsin liquid concentrate for dilution is formulated in a solvent system. […] Solubility of romidepsin was studied in the following solvents and solvent mixtures: glycerin:EtOH (1:1); PEG 300; PEG 400; Tween 80:EtOH (1:1); dimethylacetamide (DMA); SolutolHS15:EtOH (1:1); NMP; Water; EtOH:PEG 400 (1:1); EtOH;water (4:6); EtOH; EtOH:PG (80:20); EtOH:PG (60:40); EtOH:PG (40:60); EtOH:PG (20:80); PG; EtOH:PG (40:60)+10% water; EtOH:PG (40:60)+butylated hydroxyanizole (BHA)/butylated hydroxytoluebe (BHT); and EtOH:PG (40:60)+ascorbic acid.

- Solubility in water: practically insoluble in water
Structure (SMILES): C/C=C1\NC(=O)[C@H]2CSSCC/C=C/[C@H](CC(=O)N[C@H](C(C)C)C(=O)N2)OC(=O)[C@H](C(C)C)NC1=O [Romidepsin]
